Residue numbers refer to the chain shown, from its start. Residues, ends and D or L forms follow the SMILES beside them. *: point of attachment. X1 = CN(CCCC(=O)NCc1ccc(COc2nc(N)nc3[nH]c(CCCNC(=O)CN4C(=O)C[C@H](*)C4=O)nc23)cc1)C(=O)c1ccccc1-c1c2ccc(=N)c(S(=O)(=O)O)c-2oc2c(S(=O)(=O)O)c(N)ccc12
Legend:
wild type hAGT = target: T1, wild type hAGT (Homo sapiens, UniProt P16455); conditions: known values; cited from earlier work
T1 sequence (P16455 1-207): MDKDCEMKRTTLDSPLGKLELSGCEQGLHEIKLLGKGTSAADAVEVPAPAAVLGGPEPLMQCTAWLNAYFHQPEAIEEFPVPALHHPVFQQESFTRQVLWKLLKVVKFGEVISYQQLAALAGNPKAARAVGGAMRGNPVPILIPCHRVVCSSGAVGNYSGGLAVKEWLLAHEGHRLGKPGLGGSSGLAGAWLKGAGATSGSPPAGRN

AGTM (AGT mutant) = target: T2, AGTM (AGT mutant) (Homo sapiens, UniProt P16455, A127T/C150N/C62A/G131K/G132T/K125A/M134L/N157G/Q115S/Q116H/R128A/R135S/S151I/S152N/S159E); assay: Fluorescence-appearance assay and reactivity comparisons; type: biochemical; conditions: for reaction rate relative to the compound unsubstituted at C^8/N^9 / reaction rate relative to the corresponding N^9-substituted compound: AGTM; for reaction rate relative to the compound unsubstituted at C^8/N^9: comparator BG-TMR, BG-Atto488 or BG-FL; for reaction rate relative to the corresponding N^9-substituted compound: comparator compound 35, 27 or 29
T2 construct: a truncation after codon 182 into the mutant AGT gene; GST (N); made in house; host or cells: E. coli BL21
T2 sequence (P16455 1-182 C62A/Q115S/Q116H/K125A/A127T/R128A/G131K/G132T/M134L/R135S/C150N/S151I/S152N/N157G/S159E): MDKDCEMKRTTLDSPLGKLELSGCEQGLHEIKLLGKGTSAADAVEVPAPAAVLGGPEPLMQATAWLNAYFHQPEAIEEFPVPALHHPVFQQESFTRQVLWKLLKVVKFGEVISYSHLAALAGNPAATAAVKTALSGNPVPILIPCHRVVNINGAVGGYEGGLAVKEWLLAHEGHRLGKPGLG
Source text: A second AGT mutant (“AGTM”) containing the mutations Cys62Ala, Gln115Ser, Gln116His, Lys125Ala, Ala127Thr, Arg128Ala, Gly131Lys, Gly132Thr, Met134Leu, Arg135Ser, Cys150Asn, Ser15111e, Ser152Asn, Asn157Gly, Ser159G1u, and truncation at 182 is derived from the mentioned above AGT mutant by subsequent introduction of further mutations and a truncation after codon 182 into the mutant AGT gene. Subsequent PCR amplifications gives rise to the further mutated gene that is subcloned into pGEX2T as described for the first mutant. The GST-fusion protein is expressed and purified as well.
In a further assay, purified protein of AGT mutants AGTM and AGT21 (Example 47) at a protein concentration of 10 μM are incubated with 100 nM N-[4-(2-Amino-9-(3-QSY9-aminopropyl)-purin-6-yloxymethyl)-benzyl]-tetramethylrhodamine-5(6)-carboxamide (35, N^9-QSY9-BG-TMR, Example 19) in a buffer containing 100 mM NaCl, 50 mM Tris, pH 8.0, 0.1% Tween, 1 mM DTT, at room temperature. […]
(§1) Further reactivity comparisons gave the following results: […]

AGT21 (AGT mutant) = target: T3, AGT21 (AGT mutant) (Homo sapiens, UniProt P16455, A127T/C150N/C62A/K125A/N157G/Q115S/Q116H/R128A/R135S/S151I/S152N/S159E); assay: as above; type: biochemical; conditions: for reaction rate relative to the compound unsubstituted at C^8/N^9 / reaction rate relative to the corresponding N^9-substituted compound: AGT21; for reaction rate relative to the compound unsubstituted at C^8/N^9: comparator BG-TMR, BG-Atto488 or BG-FL; for reaction rate relative to the corresponding N^9-substituted compound: comparator compound 35, 27 or 29
T3 construct: and truncation at 182 is prepared according to the same method; GST (N); made in house; host or cells: E. coli BL21
T3 sequence (P16455 1-182 C62A/Q115S/Q116H/K125A/A127T/R128A/R135S/C150N/S151I/S152N/N157G/S159E): T2 sequence (P16455 1-182 C62A/Q115S/Q116H/K125A/A127T/R128A/G131K/G132T/M134L/R135S/C150N/S151I/S152N/N157G/S159E) with K131G, T132G, L134M
Method: A third AGT mutant (“AGT21”) related to AGTM and containing the mutations Cys62Ala, Gln115Ser, Gln116His, Lys125Ala, Ala127Thr, Arg128Ala, Arg135Ser, Cys150Asn, Ser15111e, Ser152Asn, Asn157Gly, Ser159G1u, and truncation at 182 is prepared according to the same method.
In a further assay, purified protein of AGT mutants AGTM and AGT21 (Example 47) at a protein concentration of 10 μM are incubated with 100 nM N-[4-(2-Amino-9-(3-QSY9-aminopropyl)-purin-6-yloxymethyl)-benzyl]-tetramethylrhodamine-5(6)-carboxamide (35, N^9-QSY9-BG-TMR, Example 19) in a buffer containing 100 mM NaCl, 50 mM Tris, pH 8.0, 0.1% Tween, 1 mM DTT, at room temperature. The fluorescence intensity (531 nm excitation/595 nm emission) is followed using a Victor2 microplate reader (Perkin Elmer).
as §1

[1] = target: T4, AGT26-CaaX fusion protein in CHO cells deficient in endogenous wildtype AGT (Homo sapiens, UniProt P16455, A127T/C150S/C62A/G131K/G132T/K125A/M134L/N157G/R128A/R135S/S159E); type: cell-based
T4 construct: and truncation at 182 is also prepared according to the same method; expressed in transfected cells
T4 sequence (P16455 1-182 C62A/K125A/A127T/R128A/G131K/G132T/M134L/R135S/C150S/N157G/S159E): T2 sequence (P16455 1-182 C62A/Q115S/Q116H/K125A/A127T/R128A/G131K/G132T/M134L/R135S/C150N/S151I/S152N/N157G/S159E) with S115Q, H116Q, N150S, I151S, N152S
Method: A fourth AGT mutant (“AGT26”) related to AGTM and containing the mutations Cys62Ala, Lys125Ala, Ala127Thr, Arg128Ala, Gly131Lys, Gly132Thr, Met134Leu, Arg135Ser, Cys150Ser, Asn157Gly, Ser159G1u, and truncation at 182 is also prepared according to the same method.
A vector for a fusion of AGT26 and the CaaX-farnesylation signal is transfected into CHO cells deficient in endogenous wildtype AGT. Stable transfectants are selected under geneticine treatment. For that purpose the gene of AGT26 is cloned into pCMV-Script (Stratagene) followed on its C-terminus by the CaaX-box sequence encoded in the pECP-F (Clontech). The final protein sequence (position 690-1271) yields a single polypeptide with 194 amino acids. […] All imaging is done with an inverted Zeiss fluorescence microscope Axiovert 40 CFL with filter sets for tetramethylrhodamine and for fluorescein.

[2] = fluorescence 490 nm excitation / 535 nm emission
[3] = 10 μM protein, 100 nM substrate, over 1 hour at 25° C.

| Compound | reaction rate relative to the compound unsubstituted at C^8/N^9 (AGTM (AGT mutant)) | reaction rate relative to the corresponding N^9-substituted compound (AGTM (AGT mutant)) | reaction rate relative to the compound unsubstituted at C^8/N^9 (AGT21 (AGT mutant)) | reaction rate relative to the corresponding N^9-substituted compound (AGT21 (AGT mutant)) | also measured |
| --- | --- | --- | --- | --- | --- |
| Nc1nc(OCc2ccccc2)c2ncn(C3C[C@H](O)[C@@H](CO)O3)c2n1 (stereo partly shown) [N^9-desoxyribosyl-O^6-benzylguanine] |  |  |  |  | rate constant of the reaction with wild type hAGT (wild type hAGT): 340 s^−1M^−1 |
| CN(CCCC(=O)NCc1ccc(COc2nc(N)nc3[nH]c(CCCNC(=O)c4ccc(/N=N/c5ccc(N(C)C)cc5)cc4)nc23)cc1)C(=O)c1ccccc1-c1c2ccc(=N)c(S(=O)(=O)O)c-2oc2c(S(=O)(=O)O)c(N)ccc12 [compound 45, N-[4-(2-Amino-8-(3-(4-[4-dimethylamino-phenyl]-azo-benzoyl)-aminopropyl)-9H-purin-6-yloxymethyl)-benzyl]-ATTO488-amide] | three times faster | at least fifteen times faster | two times faster | at least four times faster | increased reactivity compared to BG-Atto488 (AGTM (AGT mutant); [2]): 3 fold; increase in reactivity compared to BG-Atto488 (AGT21 (AGT mutant); [2]): twofold |
| CN(CCCC(=O)NCc1ccc(COc2nc(N)nc3[nH]c(CCCNC(=O)CN4C(=O)C[C@H](SC[C@H](NC(=O)[C@H](CCCNC(=N)N)NC(=O)[C@H](CCCNC(=N)N)NC(=O)[C@H](CCCNC(=N)N)NC(=O)[C@H](CCCNC(=N)N)NC(=O)[C@H](CCCNC(=N)N)NC(=O)[C@H](CCCNC(=N)N)NC(=O)[C@H](CCCNC(=N)N)NC(=O)[C@H](CCCNC(=N)N)NC(=O)[C@H](CCCNC(=N)N)NC(=O)[C@@H](N)Cc5ccc(O)cc5)C(=O)O)C4=O)nc23)cc1)C(=O)c1ccccc1-c1c2ccc(=N)c(S(=O)(=O)O)c-2oc2c(S(=O)(=O)O)c(N)ccc12 [compound 60, Conjugate O^6-ATT0488-C^8-TyrArg9Cys] (H-YRRRRRRRRRC(X1)-OH; N-terminus and C-terminus assumed) |  |  |  |  | cell membrane permeability [1]: increased permeability |
| N-[4-(2-Amino-8-(3-(4-[4-dimethylamino-phenyl]-azo-benzoyl)-amino-propyl)-9H-purin-6-yloxymethyl)-benzyl]-fluoresceine-5(6)-carboxamide [compound 44] | two times faster | at least ten times faster | two times faster | at least four times faster |  |
| N-[4-(2-Amino-8-(3-QSY9-aminopropyl)-9H-purin-6-yloxymethyl)-benzyl]-tetramethylrhodamine-5(6)-carboxamide [compound 48] | two times faster | at least ten times faster | two times faster | at least four times faster |  |
| N-[4-(2-Amino-9-(3-QSY9-aminopropyl)-purin-6-yloxymethyl)-benzyl]-tetramethylrhodamine-5(6)-carboxamide [compound 35] |  |  |  |  | increase of tetramethylrhodamine fluorescence (AGTM (AGT mutant); [3]): less than five percent; increase of tetramethylrhodamine fluorescence (AGT21 (AGT mutant); [3]): about 80% |
| O^6-tetramethylrhodamine-benzylguanine [BG-TMR, reference compound] |  |  |  |  | labeling of cells (fluorescence microscopy) ([1]; 5 μM, 30 min, CHO cells with AGT26-CaaX): clear signal at the cell membrane |

Reference: patent US8163479B2, “Specific substrates for O6-alkylguanine-DNA alkyltransferase” (Ecole Polytechnique Federale de Lausanne, priority 2004, dated 2012)
